# Measured values reported in patent publication US12226405B2, “Compounds and compositions for inhibiting the activity of HIF2-alpha and their methods of use” (Novartis AG, priority 2020, dated 2025).
# Legend:
# [1] = system: HIF2α-regulated expression of the endogenous target gene hEGLN3 in 786-O cells; assay: Cellular iScript assay for HIF2α (quantitative RT-PCR of hEGLN3); assay type: cell-based, human; settings: Homo sapiens, 786-0, 48 hours incubation
# Summary of the method: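 786-O cells were exposed to eleven 2-fold compound dilutions for 48 h at 37° C. Lysates underwent one-step TaqMan qRT-PCR for hEGLN3 with beta-actin as reference; 2^(−ΔΔCt) versus DMSO, as % of control, was fit with a four-parameter model to give IC50.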
# [2] = target: HIF2α PAS-B domain (236-350, biotinylated on the N-terminus) (Homo sapiens (Human), UniProt Q99814)
# Sequence of HIF2α PAS-B domain (236-350, biotinylated on the N-terminus) (Q99814 236-350): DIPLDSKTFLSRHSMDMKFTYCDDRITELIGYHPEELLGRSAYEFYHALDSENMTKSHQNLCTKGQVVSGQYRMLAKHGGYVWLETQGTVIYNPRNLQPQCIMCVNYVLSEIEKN
# Protocol: The assay buffer contained 50 mM Tris-HCl pH7 (Sigma), 20 mM NaCl (Fluka), 0.02% BSA (Sigma), 0.005% Triton X-100 (Pierce) and 1 mM DTT (Fluka). After a 30 min incubation period, 5 μL Streptavidin PVT SPA Beads (Perkin Elmer) at 1.2 mg/mL, diluted in the buffer, were added.
Structure (SMILES),IC50 [1],IC50 [2]
"FC(F)OC1=CC(C(F)(F)F)=CN2C[C@@]3(CCC(F)(F)c4c3ccnc4Cl)N=C12 [Example 31, (S)-1′-chloro-8-(difluoromethoxy)-8′,8′-difluoro-6-(trifluoromethyl)-7′,8′-dihydro-3H,6′H-spiro[imidazo[1,2-a]pyridine-2,5′-isoquinoline]]",37 nM,9 nM
"FC(F)OC1=CC(C(F)(F)F)=CN2C[C@@]3(CCOc4cc(C(F)(F)F)ccc43)N=C12 [Example 44, (S)-8′-(difluoromethoxy)-6′,7-bis(trifluoromethyl)-3′H-spiro[chroman-4,2′-imidazo[1,2-a]pyridine]]",65 nM,13 nM
